Data taken from ChEMBL document CHEMBL5335767, “Synthesis and study of new siderophore analog-ciprofloxacin conjugates with antibiotic activities against Pseudomonas aeruginosa and Burkholderia spp” (Eur J Med Chem, 2023).
Converted amounts (≈) assume the structure as drawn.

Assays:
[1] = tested on: Burkholderia thailandensis; assay: Antibacterial activity against Burkholderia thailandensis E264 under muller hinton medium by CLSI protocol based microdilution method; format: functional
[2] = tested on: Burkholderia thailandensis; assay: Antibacterial activity against Burkholderia thailandensis E264TS32C12 under 1 uM FeCl3 medium by CLSI protocol based microdilution method; format: functional
[3] = tested on: Burkholderia thailandensis; assay: Antibacterial activity against Burkholderia thailandensis E264TS32C47 under 1 uM FeCl3 medium by CLSI protocol based microdilution method; format: functional
Pseudomonas aeruginosa [4] = assay: Antibacterial activity against Pseudomonas aeruginosa PAD07 under muller hinton medium by CLSI protocol based microdilution method; format: functional
Lipid bilayer = assay: Binding affinity to bacterial inner membrane mimic PE/PG/CL/PC (60:20:10:10) assessed as maximum insertion pressure
[5] = tested on: Burkholderia pseudomallei; assay: Antibacterial activity against Burkholderia pseudomallei BPS2020IRBA001 under 1 uM FeCl3 medium by CLSI protocol based microdilution method; format: functional
Pseudomonas aeruginosa [6] = assay: Antibacterial activity against Pseudomonas aeruginosa PAO1 under 1 uM FeCl3 medium by CLSI protocol based microdilution method; format: functional
[7] = tested on: Burkholderia thailandensis; assay: Antibacterial activity against Burkholderia thailandensis E264TS32C12 under muller hinton medium by CLSI protocol based microdilution method; format: functional
Pseudomonas aeruginosa [8] = assay: Antibacterial activity against Pseudomonas aeruginosa AM85 under muller hinton medium by CLSI protocol based microdilution method; format: functional
[9] = tested on: Burkholderia thailandensis; assay: Antibacterial activity against Burkholderia thailandensis E264TS32C10 under 1 uM FeCl3 medium by CLSI protocol based microdilution method; format: functional
[10] = Stability in aqueous solution after 1 months; format: physicochemical; conditions: buffer, 730 h
Pseudomonas aeruginosa [11] = assay: Antibacterial activity against Pseudomonas aeruginosa PAO1 under muller hinton medium by CLSI protocol based microdilution method; format: functional
[12] = tested on: Burkholderia pseudomallei; assay: Antibacterial activity against Burkholderia pseudomallei BPS2020IRBA005 under muller hinton medium by CLSI protocol based microdilution method; format: functional
HepG2 = assay: Cytotoxicity against human HepG2 cells at 28 ug/ml after 48 hrs by CellTiter-Glo luminescent cell viability assay; format: toxicity, cell-based; conditions: hepg2, 48 h, dose 28 µg/ml
[13] = tested on: Burkholderia thailandensis; assay: Antibacterial activity against Burkholderia thailandensis E264TS32C47 under muller hinton medium by CLSI protocol based microdilution method; format: functional
[14] = tested on: Burkholderia thailandensis; assay: Antibacterial activity against Burkholderia thailandensis E264TS32C12 under succinate minimum medium by CLSI protocol based microdilution method; format: functional
[15] = tested on: Burkholderia pseudomallei; assay: Antibacterial activity against Burkholderia pseudomallei BPS2020IRBA003 under succinate minimum medium by CLSI protocol based microdilution method; format: functional
[16] = tested on: Burkholderia thailandensis; assay: Antibacterial activity against Burkholderia thailandensis E264 under succinate minimum medium by CLSI protocol based microdilution method; format: functional
[17] = tested on: Burkholderia pseudomallei; assay: Antibacterial activity against Burkholderia pseudomallei BPS2020IRBA004 under muller hinton medium by CLSI protocol based microdilution method; format: functional
[18] = tested on: Burkholderia pseudomallei; assay: Antibacterial activity against Burkholderia pseudomallei K96243 under succinate minimum medium after 48 hrs by CLSI protocol based microdilution method; format: functional
Pseudomonas aeruginosa [19] = assay: Antibacterial activity against Pseudomonas aeruginosa PAD07 under succinate minimum medium by CLSI protocol based microdilution method; format: functional
[20] = tested on: Burkholderia pseudomallei; assay: Antibacterial activity against Burkholderia pseudomallei BPS2020IRBA002 under succinate minimum medium after 48 hrs by CLSI protocol based microdilution method; format: functional
[21] = tested on: Burkholderia thailandensis; assay: Antibacterial activity against Burkholderia thailandensis E264TS32C10 under muller hinton medium by CLSI protocol based microdilution method; format: functional
[22] = tested on: Burkholderia pseudomallei; assay: Antibacterial activity against Burkholderia pseudomallei K96243 under muller hinton medium by CLSI protocol based microdilution method; format: functional
[23] = tested on: Burkholderia pseudomallei; assay: Antibacterial activity against Burkholderia pseudomallei BPS2020IRBA001 under succinate minimum medium by CLSI protocol based microdilution method; format: functional
[24] = tested on: Burkholderia pseudomallei; assay: Antibacterial activity against Burkholderia pseudomallei BPS2020IRBA003 under 1 uM FeCl3 medium by CLSI protocol based microdilution method; format: functional
Pseudomonas aeruginosa [25] = assay: Antibacterial activity against Pseudomonas aeruginosa PAO1 under succinate minimum medium by CLSI protocol based microdilution method; format: functional
Pseudomonas aeruginosa [26] = assay: Antibacterial activity against Pseudomonas aeruginosa AM85 under 1 uM FeCl3 medium by CLSI protocol based microdilution method; format: functional
[27] = tested on: Burkholderia thailandensis; assay: Antibacterial activity against Burkholderia thailandensis E264TS32C47 under succinate minimum medium by CLSI protocol based microdilution method; format: functional
Pseudomonas aeruginosa [28] = assay: Antibacterial activity against Pseudomonas aeruginosa AM85 under succinate minimum medium by CLSI protocol based microdilution method; format: functional
[29] = tested on: Burkholderia thailandensis; assay: Antibacterial activity against Burkholderia thailandensis E264 under 1 uM FeCl3 medium by CLSI protocol based microdilution method; format: functional
[30] = tested on: Burkholderia pseudomallei; assay: Antibacterial activity against Burkholderia pseudomallei BPS2020IRBA002 under muller hinton medium by CLSI protocol based microdilution method; format: functional
[31] = tested on: Burkholderia pseudomallei; assay: Antibacterial activity against Burkholderia pseudomallei BPS2020IRBA001 under muller hinton medium by CLSI protocol based microdilution method; format: functional
[32] = tested on: Burkholderia pseudomallei; assay: Antibacterial activity against Burkholderia pseudomallei BPS2020IRBA003 under muller hinton medium by CLSI protocol based microdilution method; format: functional
[33] = tested on: Burkholderia pseudomallei; assay: Antibacterial activity against Burkholderia pseudomallei BPS2020IRBA002 under 1 uM FeCl3 medium by CLSI protocol based microdilution method; format: functional
[34] = tested on: Burkholderia pseudomallei; assay: Antibacterial activity against Burkholderia pseudomallei BPS2020IRBA005 under succinate minimum medium after 48 hrs by CLSI protocol based microdilution method; format: functional
Lipopolysaccharide (LPS) = assay: Binding affinity to Pseudomonas aeruginosa lipopolysaccharide assessed as maximum insertion pressure
[35] = tested on: Burkholderia pseudomallei; assay: Antibacterial activity against Burkholderia pseudomallei K96243 under 1 uM FeCl3 medium by CLSI protocol based microdilution method; format: functional
[36] = tested on: Burkholderia pseudomallei; assay: Antibacterial activity against Burkholderia pseudomallei BPS2020IRBA005 under 1 uM FeCl3 medium after 48 hrs by CLSI protocol based microdilution method; format: functional
[37] = tested on: Burkholderia thailandensis; assay: Antibacterial activity against Burkholderia thailandensis E264TS32C10 under succinate minimum medium after 48 hrs by CLSI protocol based microdilution method; format: functional
Pseudomonas aeruginosa [38] = assay: Antibacterial activity against Pseudomonas aeruginosa PAD07 under 1 uM FeCl3 medium by CLSI protocol based microdilution method; format: functional

In the case of `CC(OC(=O)c1cccc(O)c1O)OC(=O)N1CCN(c2cc3c(cc2F)c(=O)c(C(=O)O)cn3C2CC2)CC1` (stereo unspecified), the MIC [1] is reported as 32 µg/mL (≈ 57.6 µM), the MIC [2] is reported as 16 µg/mL (≈ 28.8 µM) and the MIC [3] is reported as 8 µg/mL (≈ 14.4 µM). For the same compound, the MIC (Pseudomonas aeruginosa [4]) was 0.25 µg/mL (≈ 0.45 µM), the Activity (Lipid bilayer) was 44 mN/meter and the MIC [5] was 32 µg/mL (≈ 57.6 µM). For the same compound, the MIC (Pseudomonas aeruginosa [6]) was 1 µg/mL (≈ 1.8 µM), the MIC [7] was 64 µg/mL (≈ 115 µM) and the MIC (Pseudomonas aeruginosa [8]) was > 128 µg/mL. The MIC [9] was 32 µg/mL (≈ 57.6 µM), the Stability [10] was “Stable” and the MIC (Pseudomonas aeruginosa [11]) was 1 µg/mL (≈ 1.8 µM). For the same compound, the MIC [12] was 128 µg/mL (≈ 230 µM), the Activity (HepG2) was “Non-Toxic” and the MIC [13] was 32 µg/mL (≈ 57.6 µM). It also gave an MIC [14] of 4 µg/mL (≈ 7.2 µM), an MIC [15] of 8 µg/mL (≈ 14.4 µM) and an MIC [16] of 8 µg/mL (≈ 14.4 µM). The MIC [17] was 32 µg/mL (≈ 57.6 µM), the MIC [18] was 2 µg/mL (≈ 3.6 µM) and the MIC (Pseudomonas aeruginosa [19]) was 0.25 µg/mL (≈ 0.45 µM). The MIC [20] was 8 µg/mL (≈ 14.4 µM), the MIC [21] was > 128 µg/mL and the MIC [22] was 8 µg/mL (≈ 14.4 µM). The MIC [23] was 2 µg/mL (≈ 3.6 µM), the MIC [24] was 16 µg/mL (≈ 28.8 µM) and the MIC (Pseudomonas aeruginosa [25]) was 1 µg/mL (≈ 1.8 µM). The MIC (Pseudomonas aeruginosa [26]) was > 128 µg/mL, the MIC [27] was 4 µg/mL (≈ 7.2 µM) and the MIC (Pseudomonas aeruginosa [28]) was > 128 µg/mL. The MIC [29] was 8 µg/mL (≈ 14.4 µM), the MIC [30] was 32 µg/mL (≈ 57.6 µM) and the MIC [31] was 128 µg/mL (≈ 230 µM). It also gave an MIC [32] of 32 µg/mL (≈ 57.6 µM), an MIC [33] of 8 µg/mL (≈ 14.4 µM) and an MIC [34] of 8 µg/mL (≈ 14.4 µM). It also gave an Activity (Lipopolysaccharide (LPS)) of 30 mN/meter, an MIC [35] of 4 µg/mL (≈ 7.2 µM) and an MIC [36] of 16 µg/mL (≈ 28.8 µM). The MIC [37] was 32 µg/mL (≈ 57.6 µM) and the MIC (Pseudomonas aeruginosa [38]) was 2 µg/mL (≈ 3.6 µM).
